The text below walks through data of ChEMBL document CHEMBL2406969, “Gombamide A, a cyclic thiopeptide from the sponge Clathria gombawuiensis” (2013).

One experiment deals with A549. Kind of experiment: Cytotoxicity against human A549 cells. The class given is functional. The note with it: read-out: LC50 (the source's name).
The test system of the next experiment is K562. As to the kind of experiment: Cytotoxicity against human K562 cells. The class given is functional. The note with it: read-out: LC50 (the source's name).
The target in experiment [1] is Sodium/potassium-transporting ATPase (Homo sapiens) (UniProt P05023+P14415+P05026+P50993+P54709+P13637+Q13733+P54710).
Description: Inhibition of Na+/K+ ATPase (unknown origin)

Numbered stars: 1 amine (or outer) side, 2 acyl side, 3 side chain; on linkers, the order of the positions; unused ones are H or OH. Bridge positions count the residues as written; N and C are the ends. Square brackets hold non-standard residues; d marks the D form. Peptide text beside a SMILES is read from it. * marks the point of attachment. X1 = O=C([C@@H]1CCCN1C[C@@H]1CCCN1[*:1])[*:2]; pGlu = O=C1CC[C@@H](C(=O)O)N1; X2 = Oc1ccc(/C=C/N*)cc1

In general, LC50 refers to the concentration lethal to half of the exposed cells or organisms. A higher LC50 goes with a less lethal substance.

For `COc1cccc2c1C(=O)c1c(O)c3c(c(O)c1C2=O)C[C@@](O)(C(=O)CO)C[C@@H]3O[C@H]1C[C@H](N)[C@H](O)[C@H](C)O1` [DOXORUBICIN], the CC50 was 0.5 µM with A549 and 0.7 µM in the experiment on K562.

On to `O=C1CC[C@@H](C(=O)N[C@H]2CSSC[C@@H](C(=O)N/C=C/c3ccc(O)cc3)NC(=O)[C@H](Cc3ccccc3)NC(=O)[C@@H]3CCCN3C[C@@H]3CCCN3C2=O)N1` ([pGlu]C[X1]FC-X2; disulfide 2-5), for which the figures for the CC50 with A549 and in the experiment with K562 were 7.1 µM and 6.9 µM, respectively. This molecule also showed an LC50 in experiment [1] of 17.8 µM.
